Reference: US12497460B2, “Anti-MSR1 antibodies and methods of use thereof” (REGENERON PHARMACEUTICALS, INC., priority 2018, dated 2025)
pIC50: −log10 of the molar value. Where a name gives a salt, the structure may show the parent alone. Read-outs that look alike come from different tables or passages of the source. Marks after values point to notes of the source that are not given here.

Assays:
[1] = system: LPS-induced IL-1β release in differentiated THP-1 cells; assay: LPS-mediated IL-1β release assay; assay type: cell-based, human; details: for pIC50: Homo sapiens
Protocol: To test the anti-inflammatory properties of anti-MSR1 antibody-steroid conjugates in vitro, a lipopolysaccharide (LPS)-mediated IL-1β release assay was performed. For the assay, THP-1 cells were seeded onto 96 well plates at 40,000 cells/well in media containing RPMI supplemented with 10% FBS and pencillin/streptomycinin and differentiated with 200 nM Phorbol Myristate Acetate (PMA) for 3 days. After the 3-day differentiation period, three-fold serial dilutions of antibody drug conjugates, unconjugated antibodies, or free payloads in fresh media were added to the cells at final concentration ranging from 100 nM to 0.01 nM. Media alone served as a blank control. Subsequently at 24, 48, or 72 hours later, cells were treated with 100 ng/ml LPS (InVivoGen, Cat #tlrl-eklps) for 5 hours. The cell media was then collected, and IL-1β levels were measured using a V-PLEX Proinflammatory Panel 1 human kit (Meso Scale Diagnostics, Cat #15049D-2) as per manufacturer's instructions. Subsequently, the plate was read on a Meso Scale Diagnostics instrument.
IC50 values were determined from a four-parameter logistic equation over a 10-point response curve (GraphPad Prism). All IC50 values are expressed in M (molar) concentration. The IC50 values and IL-1β amount at the maximum concentration of antibody-steroid conjugates or controls are shown in Table 22 each of the time point tested.

[2] = system: Msr1^hu/hu ApoE^−/− mice; assay: In vivo LPS-induced cytokine production in serum; parameters: species or system mouse; details: 1.48 mg/kg, 2 hours before in vivo LPS
Protocol: (§1) To examine the anti-inflammatory effect of the anti-MSR1 antibody-steroid conjugates, an ex-vivo and in vivo LPS-induced inflammatory immune response model was performed.
(§2) Generation of a mouse inflammatory immune response model. Mice homozygously expressing human MSR1 extracellular domain in place of the mouse MSR1 extracellular domain and with a homozygous deletion of the ApoE gene were utilized (resulting mice referred to as Msr1^hu/hu ApoE^−/− mice).
(§3) Assay protocol for in vivo LPS-induced responses. In in vivo LPS challenge experiments, mice were intraperitoneally administered with 10 μL/g of decreasing concentrations of anti-MSR1 antibody-steroid conjugates (H1H21234N-N297Q-LP13) and isotype control steroid conjugate (Isotype control-N297Q-LP13) at 24 hours prior to in vivo LPS challenge. PBS and free steroid P4 were intraperitoneally injected at 2 hours prior to in vivo LPS challenge. At 0 hour time point, three large drops of blood (volume ˜ 100 μL) were collected from the maxillary vein of each mouse into serum gel separator tubes. The tubes were centrifuged at 2200-2500 rpm for 15 minutes, and the serum was collected into 96-well plates for subsequent measurement of cytokines. At 18 hours post in vivo LPS challenge, the peritoneal cells were obtained from periotenal cavity as aforementioned for subsequent flow cytometry analysis.

[3] = system: Msr1^hu/hu ApoE^−/− mice, peritoneal cells; assay: Ex vivo LPS-induced cytokine production by peritoneal cells after in vivo dosing; parameters: species or system mouse
Protocol: as §1, §2
(§4) Assay protocol for ex vivo LPS-induced responses. In ex vivo LPS challenge experiments, mice were intraperitoneally administered with 10 μL/g of anti-MSR1 antibody-steroid conjugates (H1H21234N-N297Q-LP13), isotype control steroid conjugate (Isotype control-LP13), unconjugated anti-MSR1 antibody (H1H21234N-N297Q) and isotype control antibodies at different time points (24, 48, and 72 hours) prior to harvesting the peritoneal cells from peritoneal cavity. […] All mice were sacrificed at 0 hour time point and peritoneal cells were obtained from the peritoneum by the peritoneal lavage technique. In brief, 5 mL of ice cold 1×PBS (ThermoFisher Scientific, Cat #20012027) containing 2% BSA (Gibco, Cat #A9576) and 0.6 mM EDTA (ThermoFisher Scientific, Cat #15575020) were injected into the peritoneal cavity using 27 g needle. […] The resuspended cells were plated at 500,000 cells per well in 24-well tissues culture plates and incubated with or without 10 ng/mL of LPS for 18 hours.
Measurement of cytokines at 18 hours post-LPS ex vivo challenge. Supernatants were collected into 96-well round bottom tissue culture plates at 18 hours post-ex vivo LPS challenge and stored at […] until further analysis. Cytokine concentrations in the supernatants were measured using a Proinflammatory Panel 1 (mouse) multiplex immunoassay kit (MesoScale Diagnostics, Cat #K15048D) according to manufacturer's instructions. Electrochemiluminescence was read on a Meso Scale Diagnostics SECTOR® instrument. Data analysis was performed using GraphPad Prism™ software. Statistical significance within the groups was determined by one-way Anova with Turkey's multiple comparison post-test (*p<0.01; **p<0.001; ***p<0.0001).

[4] = system: Msr1^hu/hu ApoE^−/− mice, peritoneal macrophages; assay: LPS-mediated expression of CD80 on peritoneal macrophages (flow cytometry); assay type: in vivo, mouse; details: administered 2 hours before
Protocol: as §4, §3
Analysis of expression of activation markers on peritoneal macrophages after LPS ex vivo challenge. Upon collection of supernatants for cytokine analysis, the plates were washed twice with 1×PBS w/o Ca^++/Mg2^++ (ThermoFisher Scientific, Cat #14190144), and the adherent peritoneal cells were harvested by addition of 250-300 μL of cold Macrophage Detachment Solution DXF (PromoCell, Cat #C41330) for 40 minutes. The detached cells were collected into 50-mL tubes and centrifuged at 350×g for 15 minutes. After two washes with 1×PBS supplemented with 2 mM EDTA, the cells were resuspended in Cell Staining Buffer (Biolegend, #420201) and plated at 1×10^6 cells per well in a 96-well V bottom plate. […] Data were analyzed using FlowJo (Tree Star).

[5] = system: LXR (THP1/LXR-Luc cells); assay: LXR-luciferase reporter bioassay (Example 31); assay type: cell-based, human; details: signal to noise, ratio of RLU of standard one over standard eight; 48 hours
Description: Generation of assay cell line. To test the efficacy of anti-MSR1 antibody-LXR conjugates in vitro, a cell-based LXR responsive luciferase reporter assay was developed. To generate the assay cell line, a LXR regulated luciferase reporter gene [Cignal Lenti LXR Reporter (luc) kit (Qiagen, Cat #CLS-001 L)] was transduced into THP1 cells, and cells were selected for two weeks in puromycin. The lentivirus expresses the firefly luciferase gene under the control of a minimal CMV promoter and tandem repeats of the LXR transcriptional response element. The resulting cell line is referred to as THP1/LXR-Luc cells.
Assay protocol. THP1/LXR-Luc cells were seeded onto 96 well plates at 40,000 cells/well in media containing RPMI supplemented with 10% FBS and pencillin/streptomycin and subsequently differentiated with 200 nM Phorbol Myristate Acetate (PMA) for 3 days. After the 3-day differentiation period, three-fold serial dilutions of antibody drug conjugates, unconjugated antibodies, or free payloads in fresh media were added to the cells at final concentration ranging from 100 nM to 0.01 nM. Media alone served as a blank control. Forty-eight hours later, luciferase activity was determined after the addition of One-Glo™ reagent (Promega, Cat #E6130) to each well. Relative light units (RLUs) were measured on a Victor luminometer (PerkinElmer) and EC50 values were determined using a four-parameter logistic equation over a 10-point dose response curve (GraphPad Prism). The signal to noise (S/N) was determined by calculating the ratio of RLU of standard one over RLU of standard eight for each of the unconjugated anti-MSR1 antibodies or free payloads. “LP #” represents a linker-payload for which the corresponding structures are provided elsewhere herein, and “P #” represents a payload for which the corresponding structures are provided elsewhere herein.

[6] = administered 2 hours before peritoneal cell isolation, ex vivo LPS

## CCCC1O[C@@H]2C[C@H]3[C@@H]4C[C@H](F)C5=CC(=O)C=C[C@]5(C)[C@@]4(F)[C@@H](O)C[C@]3(C)[C@]2(C(=O)CN)O1 (mixture of isomers) [P4, (1S,2S,4R,6R,8S,9S,11S,12R,13S,19S)-8-(2-Aminoacetyl)-12,19-difluoro-11-hydroxy-9,13-dimethyl-6-propyl-5,7-dioxapentacyclo[10.8.0.0^2,9.0^4,8.0^13,18]icosa-14,17-dien-16-one]
[1]; 24 hour treatment before LPS
  IL1beta released at max concentration tested: 43.39 pg/mL
[1]; 48 hour treatment before LPS
  IL1beta released at max concentration tested: 9.3 pg/mL
[1]; 72 hour treatment before LPS
  IL1beta released at max concentration tested: 12.95 pg/mL
[1]; THP-1, 24-hour time point, 100 ng/ml LPS for 5 hours, read-out: IC50, inhibition of LPS-induced IL-1β secretion
  pIC50: 9.07
[1]; THP-1, 48-hour time point, 100 ng/ml LPS for 5 hours, read-out: IC50, inhibition of LPS-induced IL-1β secretion
  pIC50: 8.99
[1]; THP-1, 72-hour time point, 100 ng/ml LPS for 5 hours, read-out: IC50, inhibition of LPS-induced IL-1β secretion
  pIC50: 8.92
[1]; THP-1, 24 hour treatment before LPS, read-out: EC50 (the source's name)
  pIC50: 9.07
[1]; THP-1, 48 hour treatment before LPS, read-out: EC50 (the source's name)
  pIC50: 8.99
[1]; THP-1, 72 hour treatment before LPS, read-out: EC50 (the source's name)
  pIC50: 8.92
[2]
  Cytokine IL-6 in serum: 3.51 ± 0.7 ng/mL
  Cytokine KC-GRO in serum: 4.1 ± 1.5 ng/mL
  Cytokine TNF-α in serum: 0.09 ± 0.02 ng/mL
[3]; [6]
  Cytokine IL-6: 12.98 ± 5.8**** ng/mL
  Cytokine KC-GRO: 2.6 ± 1.3** ng/mL
  Cytokine TNF-α: 0.43 ± 0.06** ng/mL
[3]; i.p. dosing 24, 48, 72 hours (conjugates, antibodies) or 2 hours (free steroids) before cell harvest, 10 ng/mL LPS 18 hours
  effect on ex vivo LPS-induced cytokine production (IL-6, KC-GRO, TNF-α) by peritoneal cells: Comparable inhibition of LPS-induced immune responses
[4]; hMSR1+F4/80+CD11b+ peritoneal macrophages
  LPS-mediated expression of CD80, pMΦ Cells: 54.7 ± 3.8 % relative to PBS/LPS-treatment
[4]; hMSR1−F4/80−CD11b− cells
  LPS-mediated expression of CD80, non-pMΦ Cells: 93.02 ± 4.4 % relative to PBS/LPS-treatment

## C[C@]1(C(=O)NC(=O)[C@@]2(C)CCC[C@]3(C)c4cc(NC(=O)[C@@H](N)CO)ccc4CC[C@@H]23)CCC[C@]2(C)c3cc(O)ccc3CC[C@@H]12 [P5, (1S,4aS,10aR)-6-((S)-2-Amino-3-hydroxypropanamido)-N-((1S,4aS,10aR)-6-hydroxy-1,4a-dimethyl-1,2,3,4,4a,9,10,10a-octahydrophenanthrene-1-carbonyl)-1,4a-dimethyl-1,2,3,4,4a,9,10,10a-octahydrophenanthrene-1-carboxamide]
[5]
  S/N: 5.7

## C[C@]1(C(=O)NC(=O)[C@@]2(C)CCC[C@]3(C)c4cc(NC(=O)[C@@H](N)CCC(=O)O)ccc4CC[C@@H]23)CCC[C@]2(C)c3cc(O)ccc3CC[C@@H]12 [P6, (4S)-4-Amino-4-{[(4bS,8S,8aR)-8-{[(1S,4aS,10aR)-6-hydroxy-1,4a-dimethyl-1,2,3,4,4a,9,10,10a-octahydrophenanthrene-1-carbonyl]carbamoyl}-4b,8-dimethyl-4b,5,6,7,8,8a,9,10-octahydrophenanthren-3-yl]carbamoyl}butanoic acid; trifluoroacetic acid salt]
[5]
  S/N: 8.3

## C[C@]1(C(=O)NC(=O)[C@@]2(C)CCC[C@]3(C)c4cc(NC(=O)[C@@H](N)CCCCN)ccc4CC[C@@H]23)CCC[C@]2(C)c3cc(O)ccc3CC[C@@H]12 [P7, (1S,4aS,10aR)-N-[(1S,4aS,10aR)-6-Hydroxy-1,4a-dimethyl-1,2,3,4,4a,9,10,10a-octahydrophenanthrene-1-carbonyl]-6-[(2S)-2,6-diaminohexanamido]-1,4a-dimethyl-1,2,3,4,4a,9,10,10a-octahydrophenanthrene-1-carboxamide; trifluoroacetic acid salt]
[5]
  S/N: 8.9
